Source: US20250250284A1, “MACROCYCLE COMPOUNDS USEFUL AS KRAS INHIBITORS” (Hoffmann-La Roche Inc., priority 2022, published 2025)

Legend:
[1] = molecular target: KRAS G12D binding to BRAF (Homo sapiens (Human), UniProt P01116+P62937, G12D); experiment: KRAS-BRAF with CYPA (500 nM) interaction assay (TR-FRET), G12D; settings: GMPPNP loaded 6His-KRAS, GST-BRAF RBD, 3 hours
Experimental: (§1) KRAS-BRAF with CYPA (500 nM) Interaction Assay
(§2) In this example, TR-FRET was also used to measure the compound or compound-CYPA dependent disruption of the KRAS G12C-BRAF complex. This protocol was also used to measure disruption of KRAS G12D or KRAS G12V binding to BRAF by a compound of the invention, respectively. In assay buffer containing 25 mM HEPES PH=7.4 (4-(2-hydroxyethyl)-1-piperazineethanesulfonic acid, Thermo, 15630080), 0.002% Tween20, 0.1% BSA, 100 mM NaCl, 5 mM MgCl2, 10 μM GMPPNP (Guanosine 5′-[β,γ-imido]triphosphate trisodium salt hydrate, Sigma, G0635), tagless CYPA, GMPPNP loaded 6His-KRAS proteins, and GST-BRAF^RBD were mixed in a well of a 384-well assay plate at final concentrations of 50 nM, 6.25 nM and 1 nM, respectively. Compound was present in plate wells as a 16-point 3-fold dilution series starting at a final concentration of 10 μM and incubated for 3 hours. A mixture of MAb Anti-6His-XL665 (Cisbio, 61HISXLB) and Mab anti-GST-TB cryptate (Cisbio, 61GSTTLB) was then added at a final concentration of 6.67 nM and 0.21 nM, respectively, and the plate was incubated for an additional 1.5 hours. TR-FRET signal was read on a PHERstar FSX microplate reader (Ex320 nm, Em 665/615 nm). Compounds that facilitate disruption of the KRAS-BRAF complex were identified as those eliciting a decrease in the TR-FRET ratio relative to DMSO control wells.

[2] = molecular target: KRAS G12V binding to BRAF (Homo sapiens (Human), UniProt P01116+P62937, G12V); experiment: KRAS-BRAF with CYPA (500 nM) interaction assay (TR-FRET), G12V; settings: GMPPNP loaded 6His-KRAS, GST-BRAF RBD, 3 hours
Chain of KRAS G12V binding to BRAF (P01116-2 other isoform, or with tags, fused parts or gaps G12V): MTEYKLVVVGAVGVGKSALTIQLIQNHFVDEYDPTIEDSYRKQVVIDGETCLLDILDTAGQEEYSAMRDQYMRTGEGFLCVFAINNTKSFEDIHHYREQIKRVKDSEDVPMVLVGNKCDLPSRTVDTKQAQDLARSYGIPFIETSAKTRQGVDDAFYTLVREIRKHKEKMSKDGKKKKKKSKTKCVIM
Chain of KRAS G12V binding to BRAF (P62937 whole entry): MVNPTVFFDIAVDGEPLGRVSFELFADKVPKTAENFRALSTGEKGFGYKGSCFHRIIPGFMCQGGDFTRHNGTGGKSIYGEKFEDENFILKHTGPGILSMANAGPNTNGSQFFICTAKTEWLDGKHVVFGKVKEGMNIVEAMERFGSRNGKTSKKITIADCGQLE
Experimental: as §1, §2

[3] = system: phosphorylation of ERK, KRAS G12C in NCI-H358 cells; experiment: pERK inhibition assay, KRAS G12C; type: cell-based; settings: Homo sapiens, 4 hours of incubation
Experimental: (§3) This assay is to measure the ability of test compounds in inhibiting the phosphorylation of ERK, the downstream signaling of KRAS G12C in NCI-H358 cells, KRAS G12D in AGS cells, and KRAS G12V in SW620. NCI-H358 (ATCC-CRL5807) cells, AGS (ATCC-CRL-1739) cells, SW620 (ATCC-CCL-227) cells were all grown and maintained using RPMI-1640 medium (Thermo Fisher Scientific) with 10% fetal bovine serum and 1% penicillin/streptomycin. On the day prior to compound addition, cells were plated in tissue culture-treated 96 well plates (Corning-3699) at a density of 30,000 cell/well, 20,000 cell/well, 30,000 cell/well for NCI-H358, AGS and SW620 respectively, and allowed for attachment overnight. Diluted compounds were then added in a final concentration of 0.5% DMSO. After 4 hours of incubation, the medium was removed, 100 μL of 4% formaldehyde was added, and the assay plates were incubated at room temperature for 20 minutes. The plates were then washed once with phosphate buffered saline (PBS), and permeabilized with 100 μL of chilled methanol for 10 minutes. Non-specific antibody binding to the plates was blocked using 50 μL 1×BSA blocking buffer (Thermo-37520, 10-fold dilution by Phosphate-Buffered Saline Tween (PBST) for at least 1 hour at room temperature.
(§4) The amount of phosphor-ERK was determined using an antibody specific for phosphorylated form of ERK. Primary antibody (pERK, CST-4370, Cell Signaling Technology) was diluted 1:300 in blocking buffer, with 50 μL aliquoted to each well, and incubated overnight at 4° C. Cells was washed five times for 5 minutes with PBST. Secondary antibody (HRP-linked anti-rabbit IgG, CST-7074, Cell Signaling Technology) was diluted 1:1000 in blocking buffer, and 50 μL was added to each well and incubated 1-2 hrs at room temperature. Cells was washed 5 times for 5 minutes with PBST, 100 μL TMB ELISA substrate (abcam-ab171523) were added and gently shake for 20 minutes. 50 μL stop solution (abcam-ab171529) were added, and then read the signal (OD450) by EnVision.
(§5) IC50 was determined by fitting a 4-parameter sigmoidal concentration response model.

[4] = system: phosphorylation of ERK, KRAS G12V in SW620; experiment: pERK inhibition assay, KRAS G12V; type: cell-based; settings: Homo sapiens, SW-620; SW620 cells, 4 hours of incubation
Experimental: as §3, §4, §5

[5] = system: phosphorylation of ERK, KRAS G12D in AGS cells; experiment: pERK inhibition assay, KRAS G12D; type: cell-based; settings: Homo sapiens, 4 hours of incubation
Experimental: as §3, §4, §5

NCI-H358 cells = experiment: Cell viability assay (Cell Counting Kit-8), KRAS G12C; type: cell-based; settings: Homo sapiens, 72 hrs incubation, CCK-8
Experimental: (§6) The purpose of this cellular assay was to determine the effects of test compounds on the proliferation of human cancer cell lines NCI-H358 (ATCC-CRL5807) cells, AGS (ATCC-CRL-1739) cells, SW620 (ATCC-CCL-227) over a 3-day treatment period by quantifying the amount of NADPH present at endpoint using Cell Counting Kit-8.
(§7) Cells were seeded at 5,000 cells/well (NCI-H358), 2,000 cells/well (AGS) 2,000 cells/well (SW620) in 96-well assay plates (Corning-3699) and incubated overnight. On the day of the assay, diluted compounds were then added in a final concentration of 0.5% DMSO. After 72 hrs incubation, a tenth of the volume of cell counting kit 8 (Dnjindo-CK04) was added into each well. Read the signal (OD450 minus OD650) using EnVision after 2 hrs incubation. IC50 was determined by fitting a 4-parameter sigmoidal concentration response model.

KRAS G12C-BRAF complex = KRAS G12C-BRAF complex (Homo sapiens (Human), UniProt P01116+P62937, G12C); experiment: KRAS-BRAF with CYPA (500 nM) interaction assay (TR-FRET), G12C; type: binding; settings: GMPPNP loaded 6His-KRAS, GST-BRAF RBD, 3 hours
Chain of KRAS G12C-BRAF complex (P01116-2 other isoform, or with tags, fused parts or gaps G12C): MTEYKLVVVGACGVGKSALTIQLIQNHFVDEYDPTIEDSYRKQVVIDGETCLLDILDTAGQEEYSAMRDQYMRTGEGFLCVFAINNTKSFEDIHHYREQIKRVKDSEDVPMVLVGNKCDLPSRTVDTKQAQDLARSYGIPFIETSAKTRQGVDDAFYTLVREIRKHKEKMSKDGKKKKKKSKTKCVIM
Chain of KRAS G12C-BRAF complex (P62937 whole entry): as the sequence (P62937 whole entry) above
Experimental: as §1, §2

SW620 cells = experiment: Cell viability assay (Cell Counting Kit-8), KRAS G12V; type: cell-based; settings: Homo sapiens, SW-620, 72 hrs incubation, CCK-8
Experimental: as §6, §7

AGS cells = experiment: Cell viability assay (Cell Counting Kit-8), KRAS G12D; type: cell-based; settings: Homo sapiens, 72 hrs incubation, CCK-8
Experimental: as §6, §7

Chain of KRAS G12D binding to BRAF (P01116-2 other isoform, or with tags, fused parts or gaps G12D): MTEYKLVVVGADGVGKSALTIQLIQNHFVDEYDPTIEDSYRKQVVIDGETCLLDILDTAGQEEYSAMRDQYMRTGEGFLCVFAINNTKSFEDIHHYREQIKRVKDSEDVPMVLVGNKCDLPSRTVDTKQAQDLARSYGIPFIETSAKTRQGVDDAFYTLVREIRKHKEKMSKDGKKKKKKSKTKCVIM
Chain of KRAS G12D binding to BRAF (P62937 whole entry): as the sequence (P62937 whole entry) above

**Q.** Which results are given for `CO[C@@H](C)c1ncc(N2CCN(C)CC2)cc1-c1c2c3c(F)c(ccc3n1CC(F)(F)F)-c1csc(n1)C[C@H](NC(=O)[C@H]1C[C@@H]1C)C(=O)N1CCC[C@H](N1)C(=O)OCC(C)(C)C2` (atropisomer, axis not shown; (M)) [Example 10, (1S,2S)—N-[(7S,13S)-25-fluoro-(20M)-20-[2-[(1S)-1-methoxyethyl]-5-(4-methylpiperazin-1-yl)-3-pyridyl]-17,17-dimethyl-8,14-dioxo-21-(2,2,2-trifluoroethyl)-15-oxa-4-thia-9,21,27,28-tetrazapentacyclo[17.5.2.1^2,5.1^9,13.0^22,26]octacosa-1(25),2,5(28),19,22(26),23-hexaen-7-yl]-2-methyl-cyclopropanecarboxamide]?
**A.** IC50 [1]: 0.02 µM; IC50 [2]: 0.013 µM; IC50 [3]: 0.017 µM; IC50 [4]: 0.002 µM; IC50 [5]: 0.011 µM; IC50 (NCI-H358 cells): 0.012 µM; IC50 (KRAS G12C-BRAF complex): 0.009 µM; IC50 (SW620 cells): 0.003 µM; IC50 (AGS cells): 0.013 µM
